From publication PMC9120017, “Inhibition mechanism of the chloride channel TMEM16A by the pore blocker 1PBC” (Nature Communications, 2022)
Where two headings read alike, the source gives them in different places.

Molecular target: T1, mouse TMEM16A mutant V511A (Mus musculus, UniProt Q8BHY3, V511A)
T1 construct: expressed in transfected cells; host or cells: HEK293T
T1 sequence (Q8BHY3 1-960 V511A): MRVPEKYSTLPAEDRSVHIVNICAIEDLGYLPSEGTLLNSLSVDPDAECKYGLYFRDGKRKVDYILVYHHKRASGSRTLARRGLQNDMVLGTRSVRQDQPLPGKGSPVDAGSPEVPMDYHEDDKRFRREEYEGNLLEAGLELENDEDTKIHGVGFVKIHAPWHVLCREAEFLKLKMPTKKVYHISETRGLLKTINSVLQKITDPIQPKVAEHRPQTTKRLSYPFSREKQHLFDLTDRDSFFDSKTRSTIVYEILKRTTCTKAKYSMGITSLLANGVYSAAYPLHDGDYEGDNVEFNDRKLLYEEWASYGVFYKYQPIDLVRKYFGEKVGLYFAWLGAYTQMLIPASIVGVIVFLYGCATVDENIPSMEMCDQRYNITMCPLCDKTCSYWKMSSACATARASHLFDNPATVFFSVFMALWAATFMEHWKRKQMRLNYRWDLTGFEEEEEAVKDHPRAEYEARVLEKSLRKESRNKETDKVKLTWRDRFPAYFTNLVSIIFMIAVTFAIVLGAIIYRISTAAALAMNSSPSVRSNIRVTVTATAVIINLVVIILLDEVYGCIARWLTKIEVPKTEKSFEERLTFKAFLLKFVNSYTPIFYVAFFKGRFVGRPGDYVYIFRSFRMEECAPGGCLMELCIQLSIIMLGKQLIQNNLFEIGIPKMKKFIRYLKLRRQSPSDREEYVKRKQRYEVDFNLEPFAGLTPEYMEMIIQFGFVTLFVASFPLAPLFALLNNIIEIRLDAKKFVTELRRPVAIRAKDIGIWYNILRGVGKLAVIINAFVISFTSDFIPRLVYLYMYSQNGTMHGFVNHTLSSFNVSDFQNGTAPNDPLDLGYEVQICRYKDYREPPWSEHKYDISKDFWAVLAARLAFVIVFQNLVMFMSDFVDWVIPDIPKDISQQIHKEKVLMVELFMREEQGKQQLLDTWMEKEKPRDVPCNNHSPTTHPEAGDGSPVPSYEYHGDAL
Test: Inside-out patch recording of 1PBC block, mutant V511A
Type: cell-based
Conditions: for remaining activity at 3 µM: 1PBC 3; for remaining activity at 3 µM / remaining activity at 10 µM / remaining activity at 30 µM / remaining activity at 100 µM: read-out: fraction of unblocked current; for remaining activity at 10 µM: 1PBC 10; for remaining activity at 30 µM: 1PBC 30; for remaining activity at 100 µM: 1PBC 100
Method: HEK293T cells (ATCC CRL-1573) were maintained in Dulbecco’s modified Eagle’s medium (DMEM; Sigma-Aldrich) supplemented with 10 U ml^−1 penicillin, 0.1 mg ml^−1 streptomycin (Sigma-Aldrich), 2 mM L-glutamine (Sigma-Aldrich), and 10% FBS (Sigma-Aldrich) in a humidified atmosphere containing 5% CO2 at 37 °C. HEK293S GnTI^− cells (ATCC CRL-3022) were maintained in HyClone HyCell TransFx-H medium (GE Healthcare) supplemented with 10 U ml^−1 penicillin, 0.1 mg ml^−1 streptomycin, 4 mM L-glutamine, 0.15% poloxamer 188 (Sigma-Aldrich), and 1% FBS in an atmosphere containing 5% CO2 at 185 rpm at 37 °C. The ac splice variant of mouse TMEM16A (UniProt ID: Q8BHY3), mouse TMEM16B (UniProt ID: Q8CFW1), or mouse TMEM16F (UniProt ID: Q6P9J9) bearing a 3C cleavage site, a Venus YFP, a Myc tag, and a Streptavidin-binding peptide (SBP) downstream of the open reading frame in a modified pcDNA3.1 vector (Invitrogen) were used as described previously[21],[31]. Mutations were introduced using a modified QuikChange method[58] and were verified by sequencing.
HEK293T cells were transfected with 3–4 μg DNA per 6 cm Petri dish using the calcium phosphate co-precipitation method and were used within 24–96 h after transfection. Recordings were performed on inside-out patches excised from HEK293T cells expressing the construct of interest. Patch pipettes were pulled from borosilicate glass capillaries (O.D. 1.5 mm, I.D. 0.86 mm, Sutter Instrument) and were fire-polished with a microforge (Narishige) before use. Pipette resistance was typically 3–8 MΩ when filled with the recording solutions detailed below. Seal resistance was typically 4 GΩ or higher. Voltage-clamp recordings were made using Axopatch 200B, Digidata 1550, and Clampex 10.7 (Molecular Devices). Analog signals were filtered with the in-built 4-pole Bessel filter at 10 kHz and were digitized at 20 kHz. Solution exchange was achieved using a gravity-fed system through a theta glass pipette mounted on an ultra-fast piezo-driven stepper (Siskiyou). […] All recordings were performed at 20 °C.
A symmetrical ionic condition was used throughout. Stock solution with Ca^2+-EGTA contained 150 mM NaCl, 5.99 mM Ca(OH)2, 5 mM EGTA, and 10 mM HEPES at pH 7.40. Stock solution with EGTA contained 150 mM NaCl, 5 mM EGTA, and 10 mM HEPES at pH 7.40. Free Ca^2+ concentrations were adjusted by mixing the stock solutions at the required ratios calculated using the WEBMAXC program (http://web.stanford.edu/~cpatton/webmaxcS.htm). Patch pipettes were filled with the stock solution with Ca^2+-EGTA, which has a free Ca^2+ concentration of 1 mM. 1PBC (ChemBridge) stock was reconstituted in anhydrous DMSO (Sigma-Aldrich) at 100 mM and stored at −20 °C. Working solutions with 1PBC were prepared by serial dilution. Unless otherwise stated, experiments were performed at a saturating Ca^2+ concentration as shown in Supplementary Table 1 and the primary data were corrected for current rundown as described previously[21],[25].
Concentration-response relations, obtained from the ratio of the I-V plots before and after the application of the blocker, were fitted to the Hill equation,1 I/Imax=1/1+IC50/[blocker]^h where I/Imax is the normalized current responses, IC50 defines the concentration at which inhibition is at its half-maximum, and h is the Hill coefficient.

IC50 (0 mV, 2 µM Ca2+): 20.8 µM
remaining activity at 3 µM (0 mV): 87.8%
remaining activity at 3 µM (20 mV): 84.4%
remaining activity at 3 µM (40 mV): 80.2%
remaining activity at 3 µM (60 mV): 77.1%
remaining activity at 3 µM (80 mV): 73.1%
remaining activity at 3 µM (100 mV): 70.9%
remaining activity at 3 µM (120 mV): 69.6%
remaining activity at 3 µM (140 mV): 70.4%
remaining activity at 3 µM (-20 mV): 91.2%
remaining activity at 3 µM (-40 mV): 93%
remaining activity at 3 µM (-60 mV): 94.7%
remaining activity at 3 µM (-80 mV): 95.6%
remaining activity at 3 µM (-100 mV): 95.2%
remaining activity at 3 µM (-120 mV): 95.6%
remaining activity at 3 µM (-140 mV): 94.5%
remaining activity at 10 µM (0 mV): 68%
remaining activity at 10 µM (20 mV): 62.6%
remaining activity at 10 µM (40 mV): 56.1%
remaining activity at 10 µM (60 mV): 50.6%
remaining activity at 10 µM (80 mV): 45.9%
remaining activity at 10 µM (100 mV): 43.5%
remaining activity at 10 µM (120 mV): 41.9%
remaining activity at 10 µM (140 mV): 42.2%
remaining activity at 10 µM (-20 mV): 73.3%
remaining activity at 10 µM (-40 mV): 78.6%
remaining activity at 10 µM (-60 mV): 82.2%
remaining activity at 10 µM (-80 mV): 84.9%
remaining activity at 10 µM (-100 mV): 86.6%
remaining activity at 10 µM (-120 mV): 87%
remaining activity at 10 µM (-140 mV): 87.7%
remaining activity at 30 µM (0 mV): 40.9%
remaining activity at 30 µM (20 mV): 35.2%
remaining activity at 30 µM (40 mV): 30.5%
remaining activity at 30 µM (60 mV): 26.5%
remaining activity at 30 µM (80 mV): 24%
remaining activity at 30 µM (100 mV): 22.5%
remaining activity at 30 µM (120 mV): 22.7%
remaining activity at 30 µM (140 mV): 23.4%
remaining activity at 30 µM (-20 mV): 46.5%
remaining activity at 30 µM (-40 mV): 52.4%
remaining activity at 30 µM (-60 mV): 58.4%
remaining activity at 30 µM (-80 mV): 63.9%
remaining activity at 30 µM (-100 mV): 68.3%
remaining activity at 30 µM (-120 mV): 71.3%
remaining activity at 30 µM (-140 mV): 72.9%
remaining activity at 100 µM (0 mV): 16.5%
remaining activity at 100 µM (20 mV): 13.8%
remaining activity at 100 µM (40 mV): 11.5%
remaining activity at 100 µM (60 mV): 10.1%
remaining activity at 100 µM (80 mV): 9.26%
remaining activity at 100 µM (100 mV): 9.4%
remaining activity at 100 µM (120 mV): 9.52%
remaining activity at 100 µM (140 mV): 9.88%
remaining activity at 100 µM (-20 mV): 19.3%
remaining activity at 100 µM (-40 mV): 23.1%
remaining activity at 100 µM (-60 mV): 28.5%
remaining activity at 100 µM (-80 mV): 33.3%
remaining activity at 100 µM (-100 mV): 37.9%
remaining activity at 100 µM (-120 mV): 41.7%
remaining activity at 100 µM (-140 mV): 44.8%
IC50 (20 mV, 2 µM Ca2+): 16.4 µM
IC50 (40 mV, 2 µM Ca2+): 12.8 µM
IC50 (60 mV, 2 µM Ca2+): 10.4 µM
log-fold IC50 (change of mutant vs WT) (80 mV): 0.5163
IC50 (80 mV, 2 µM Ca2+): 8.67 µM
IC50 (100 mV, 2 µM Ca2+): 7.86 µM
IC50 (120 mV, 2 µM Ca2+): 7.49 µM
IC50 (140 mV, 2 µM Ca2+): 7.71 µM
IC50 (-20 mV, 2 µM Ca2+): 26.3 µM
IC50 (-40 mV, 2 µM Ca2+): 33.3 µM
IC50 (-60 mV, 2 µM Ca2+): 42.3 µM
IC50 (-80 mV, 2 µM Ca2+): 52.4 µM
IC50 (-100 mV, 2 µM Ca2+): 62.9 µM
IC50 (-120 mV, 2 µM Ca2+): 72.1 µM
IC50 (-140 mV, 2 µM Ca2+): 79.5 µM
IC50 (V511A, V 0 mV): 20.8 µM
IC50 (V511A, V 20 mV): 16.4 µM
IC50 (V511A, V 40 mV): 12.8 µM
IC50 (V511A, V 60 mV): 10.4 µM
IC50 (V511A, V 80 mV): 8.67 µM
IC50 (V511A, V 100 mV): 7.86 µM
IC50 (V511A, V 120 mV): 7.49 µM
IC50 (V511A, V 140 mV): 7.71 µM
IC50 (V511A, V -20 mV): 26.3 µM
IC50 (V511A, V -40 mV): 33.3 µM
IC50 (V511A, V -60 mV): 42.3 µM
IC50 (V511A, V -80 mV): 52.4 µM
IC50 (V511A, V -100 mV): 62.9 µM
IC50 (V511A, V -120 mV): 72.1 µM
IC50 (V511A, V -140 mV): 79.5 µM
Structure (SMILES): N#Cc1c(C(F)(F)F)cc(O)n2c1nc1ccccc12 [1PBC]
